The record followed here is US11976057B2, “MrgX2 antagonists” (GlaxoSmithKline Intellectual Property Development Limited, priority 2020, dated 2024).

For orientation: IC50 means the concentration that inhibits the measured activity by half.

SMILES strings stand for the structures.

This experiment has as its target T1, human MRGPRX2 (Homo sapiens, UniProt Q96LB1).
T1 sequence (Q96LB1 1-330): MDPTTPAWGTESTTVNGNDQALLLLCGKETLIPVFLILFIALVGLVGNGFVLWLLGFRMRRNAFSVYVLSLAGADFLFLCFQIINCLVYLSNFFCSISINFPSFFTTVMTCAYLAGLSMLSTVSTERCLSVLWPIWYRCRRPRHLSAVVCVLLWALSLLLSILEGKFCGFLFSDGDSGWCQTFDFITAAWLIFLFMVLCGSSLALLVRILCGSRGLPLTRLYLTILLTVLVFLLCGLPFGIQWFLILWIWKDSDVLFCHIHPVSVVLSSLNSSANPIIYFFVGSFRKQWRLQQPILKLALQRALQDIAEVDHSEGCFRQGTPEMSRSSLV
Nature of the experiment: Ca2+ mobilization assay (FLIPR TETRA): inhibition of Cortistatin-14 mediated MRGPRX2 activation.
The compound `C[C@@H](C(=O)Nc1cnc(Oc2ccc(F)cc2F)cn1)N1CCC(F)(F)[C@@H](c2c[nH]c(=O)c(CN3CCOCC3)c2)C1` [Example 229, (S)-2-((S)-4,4-difluoro-3-(5-(morpholinomethyl)-6-oxo-1,6-dihydropyridin-3-yl)piperidin-1-yl)-N-(5-(2,4-difluorophenoxy)pyrazin-2-yl)propanamide] showed an IC50 of at most 10 nM.

In turn, `C[C@@H](C(=O)Nc1ccc(OCC2CC2)nn1)N1CCC(F)(F)[C@@H](c2c[nH]c(=O)c(N)n2)C1` (single isomer, unassigned) [Example 104] gave an IC50 of at most 10 nM. The compound `C[C@@H](C(=O)Nc1ccc(OCC2CC2)cn1)N1CCC(F)(F)[C@@H](c2c[nH]c(=O)c(N)n2)C1` [Example 105, (S)-2-((R)-3-(6-amino-5-oxo-4,5-dihydropyrazin-2-y1)-4,4-difluoropiperidin-l-y1)-N-(5-(cyclopropylmethoxy)pyridin-2-yl)propanamide] returned an IC50 of 10 to 100 nM. `C[C@@H](C(=O)Nc1ccc(Oc2ccc(F)cc2F)cn1)N1CCC(F)(F)[C@@H](c2c[nH]c(=O)c([C@@H](N)C(F)(F)F)c2)C1` (single isomer, unassigned) [Example 236] came in with a half-maximal inhibitory concentration (IC50) of at most 10 nM.

`Cc1cccc(-c2ccc(NC(=O)[C@H](C)N3CCC(F)(F)[C@@H](c4ccc(=O)[nH]c4)C3)nc2)n1` [Example 11, (S)-2-((S)-4,4-difluoro-3-(6-oxo-1,6-dihydropyridin-3-yl)piperidin-1-yl)-N-(6-methyl-[2,3′-bipyridin]-6′-yl)propanamide]: the IC50 fell in the range of 100 to 3160 nM. `C[C@@H](C(=O)Nc1cnc(Oc2c(F)cccc2F)cn1)N1CCC(F)(F)[C@@H](c2cc[n+]([O-])cc2)C1` [Example 121, 4-((S)-1-((S)-1-((5-(2,6-difluorophenoxy)pyrazin-2-yl)amino)-1-oxopropan-2-yl)-4,4-difluoropiperidin-3-yl)pyridine 1-oxide] displayed an IC50 of at most 10 nM. Compound `CC(C(=O)Nc1ccc(OCC2CCC2)cn1)N1CCC(F)(F)[C@@H](c2ccc(=O)[nH]c2)C1` (stereo partly drawn) [Example 30, N-(5-(cyclobutyl-methoxy)pyridin-2-yl)-2-((S)-4,4-difluoro-3-(6-oxo-1,6-dihydropyridin-3-yl)piperidin-1-yl)propanamide] gave an IC50 of 100 to 3160 nM. For `CC(C(=O)Nc1ccc(Oc2ncc(F)cc2Cl)cn1)N1CCC(F)(F)[C@@H](c2ccc(=O)[nH]c2)C1` (stereo partly drawn) [Example 90, N-(5-((3-chloro-5-fluoropyridin-2-yl)oxy)pyridin-2-yl)-2-((S)-4,4-difluoro-3-(6-oxo-1,6-dihydropyridin-3-yl)piperidin-1-yl)propanamide], the IC50 is at most 10 nM.

Compound `CC(C(=O)Nc1ccc(Cc2cccnc2)cn1)N1CCC(F)(F)[C@@H](c2ccc(=O)[nH]c2)C1` (stereo partly drawn) [Example 45, 2-((S)-4,4-difluoro-3-(6-oxo-1,6-dihydropyridin-3-yl)piperidin-1-yl)-N-(5-(pyridin-3-ylmethyl)pyridin-2-yl)propanamide] had an IC50 of 3160 to 31600 nM.

Compound `C[C@@H](C(=O)Nc1ccc(C2CC2)cn1)N1CCC(F)(F)[C@@H](c2ccc(=O)[nH]n2)C1` [Example 147] showed a half-inhibitory concentration (IC50) of 100 to 3160 nM. Compound `C[C@@H](C(=O)Nc1ccc(Oc2ccc(F)cc2F)cn1)[C@H]1CCC(F)(F)[C@@H](c2ccc(=O)[nH]c2)C1` [Example 280, (R)-2-((1S,3R)-4,4-difluoro-3-(6-oxo-1,6-dihydropyridin-3-yl)cyclohexyl)-N-(5-(2,4-difluorophenoxy)pyridin-2-yl)propanamide] returned an IC50 of at most 10 nM. `CC(C(=O)Nc1ccc(OCC2CC2(F)F)cn1)N1CCC(F)(F)[C@@H](c2ccc(=O)[nH]c2)C1` (stereo partly drawn) [Example 36, 2-((S)-4,4-difluoro-3-(6-oxo-1,6-dihydropyridin-3-yl)piperidin-1-yl)-N-(5-((2,2-difluorocyclo-propyl)methoxy)pyridin-2-yl)propanamide] yielded an IC50 of 100 to 3160 nM.

`C[C@@H](C(=O)Nc1ccc(Cl)cn1)N1CCC(F)(F)[C@@H](c2c[nH]c(=O)cn2)C1` [Example 136, (S)-N-(5-chloropyridin-2-yl)-2-((R)-4,4-difluoro-3-(5-oxo-4,5-dihydropyrazin-2-yl)piperidin-1-yl)propanamide]: the IC50 lay in the range of 100 to 3160 nM. Compound `C[C@@H](C(=O)Nc1ccc(OCC2CC2)nn1)N1CCC(F)(F)[C@@H](c2cc[n+]([O-])cc2)C1` (single isomer, unassigned) [Example 109] came in with an IC50 of 100 to 3160 nM. In the case of `C[C@@H](C(=O)Nc1ccc(Cl)cn1)N1CCC[C@@H](c2ccc(=O)n(CC(F)(F)F)c2)C1` (single isomer, unassigned) [Example 167], the IC50 was 100 to 3160 nM. The compound `Cc1cc([C@@H]2CCCN([C@@H](C)C(=O)Nc3ccc(Cl)cn3)C2)c[nH]c1=O` (single isomer, unassigned) [Example 184] returned an IC50 of 3160 to 31600 nM. Turning to `CC(C(=O)Nc1ccc(Cl)cn1)N1CCC(F)(F)C(c2c[nH]c(=O)c(CO)c2)C1` (stereo not shown) [Example 155, N-(5-chloropyridin-2-yl)-2-(4,4-difluoro-3-(5-(hydroxymethyl)-6-oxo-1,6-dihydropyridin-3-yl)piperidin-1-yl)propanamide], the concentration for half-maximal inhibition (IC50) lay within 100 to 3160 nM.

For the compound `C[C@@H](C(=O)Nc1ccc(Oc2ccc(F)cn2)cn1)[C@H]1CCC[C@@H](c2ccc(=O)[nH]c2)C1` [Example 283, (R)-N-(5((5-fluoropyridin-2-yl)oxy)pyridin-2-yl)-2-((1S,3R)-3-(6-oxo-1,6-dihydropyridin-3-yl)cyclohexyl)propanamide], the IC50 is at most 10 nM. The value for `C[C@@H](C(=O)Nc1ccc(F)cn1)N1CCC(F)(F)[C@@H](c2ccc(=O)n(Cc3ccccc3)c2)C1` [Example 195] was at most 10 nM.
